By inhibition is commonly meant the drop in the measured response relative to a control, in per cent.

Assay [1] has as its target RAC-beta serine/threonine-protein kinase (Homo sapiens) (UniProt P31751). The assay can be described thus: Inhibition of human AKT2 at 500 nM by HotSpot assay relative to control.
Assay [2] concerns the target RAC-gamma serine/threonine-protein kinase (Homo sapiens) (UniProt Q9Y243). Kind of assay: Inhibition of human AKT3 at 500 nM by HotSpot assay relative to control.
For assay [3], the target named is Tyrosine-protein kinase receptor UFO (Homo sapiens) (UniProt P30530). The assay can be described thus: Inhibition of human AXL at 500 nM by HotSpot assay relative to control.
Assay [4] addresses Dual specificity protein kinase CLK1 (Homo sapiens) (UniProt P49759). Kind of assay: Inhibition of human CLK1 at 500 nM by HotSpot assay relative to control.
Assay [5] has as its target T1, Ephrin type-A receptor 8 (Homo sapiens) (UniProt P29322).
T1 sequence (whole entry): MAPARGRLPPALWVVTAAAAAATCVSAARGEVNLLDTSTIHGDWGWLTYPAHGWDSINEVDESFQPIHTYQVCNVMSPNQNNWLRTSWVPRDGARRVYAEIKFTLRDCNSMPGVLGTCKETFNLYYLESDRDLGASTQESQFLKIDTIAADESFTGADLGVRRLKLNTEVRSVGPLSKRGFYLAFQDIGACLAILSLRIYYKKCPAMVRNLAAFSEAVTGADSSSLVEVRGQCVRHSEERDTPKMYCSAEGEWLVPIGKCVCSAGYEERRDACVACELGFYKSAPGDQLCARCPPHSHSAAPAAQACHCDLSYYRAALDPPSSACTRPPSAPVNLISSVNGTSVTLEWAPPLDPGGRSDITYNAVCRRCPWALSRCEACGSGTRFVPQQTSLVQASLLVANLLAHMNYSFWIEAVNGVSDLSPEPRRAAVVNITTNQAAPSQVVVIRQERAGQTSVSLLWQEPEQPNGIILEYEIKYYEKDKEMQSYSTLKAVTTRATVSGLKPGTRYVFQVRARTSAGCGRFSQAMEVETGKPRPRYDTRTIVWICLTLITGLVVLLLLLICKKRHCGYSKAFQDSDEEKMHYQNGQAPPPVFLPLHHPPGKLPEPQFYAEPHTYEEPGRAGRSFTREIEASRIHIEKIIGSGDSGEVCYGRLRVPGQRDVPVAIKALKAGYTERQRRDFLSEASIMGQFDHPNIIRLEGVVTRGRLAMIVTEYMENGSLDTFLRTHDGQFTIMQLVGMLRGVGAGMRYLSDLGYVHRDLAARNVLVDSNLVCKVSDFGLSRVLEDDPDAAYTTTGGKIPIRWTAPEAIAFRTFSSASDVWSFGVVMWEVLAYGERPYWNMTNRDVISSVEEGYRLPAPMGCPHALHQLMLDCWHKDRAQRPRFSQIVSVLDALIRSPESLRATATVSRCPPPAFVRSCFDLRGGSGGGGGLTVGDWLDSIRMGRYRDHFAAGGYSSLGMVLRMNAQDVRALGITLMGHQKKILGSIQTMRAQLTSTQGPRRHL
Kind of assay: Inhibition of human EPHA8 at 500 nM by HotSpot assay relative to control.

Assay [6] has as its target Receptor-type tyrosine-protein kinase FLT3 (Homo sapiens) (UniProt P36888). Kind of assay: Inhibition of human FLT3 at 500 nM by HotSpot assay relative to control.
Assay [7] has as its target T2, Serine/threonine-protein kinase 3 (Homo sapiens) (UniProt Q13188).
T2 sequence (whole entry): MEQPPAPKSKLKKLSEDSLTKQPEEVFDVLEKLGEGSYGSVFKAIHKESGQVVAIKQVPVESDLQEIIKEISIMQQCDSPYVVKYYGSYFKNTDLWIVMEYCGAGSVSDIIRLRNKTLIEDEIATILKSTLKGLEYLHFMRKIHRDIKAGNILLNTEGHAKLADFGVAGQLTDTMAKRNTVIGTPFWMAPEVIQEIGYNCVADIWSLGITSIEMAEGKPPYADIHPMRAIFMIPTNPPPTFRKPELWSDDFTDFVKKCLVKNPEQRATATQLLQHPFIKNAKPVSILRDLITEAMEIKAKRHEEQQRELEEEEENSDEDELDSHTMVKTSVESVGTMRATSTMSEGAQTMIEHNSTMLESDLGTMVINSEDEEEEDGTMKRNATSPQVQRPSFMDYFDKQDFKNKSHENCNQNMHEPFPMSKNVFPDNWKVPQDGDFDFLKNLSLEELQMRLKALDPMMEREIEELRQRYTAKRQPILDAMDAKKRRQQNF
The assay can be described thus: Inhibition of human STK3 at 500 nM by HotSpot assay relative to control.

Assay [8] deals with Serine/threonine-protein kinase PAK 2 (Homo sapiens) (UniProt Q13177). Kind of assay: Inhibition of human PAK2 at 500 nM by HotSpot assay relative to control.
For assay [9], the target named is Serine/threonine-protein kinase pim-1 (Homo sapiens) (UniProt P11309). The assay can be described thus: Inhibition of human PIM1 at 500 nM by HotSpot assay relative to control.
For assay [10], the target named is Protein kinase C delta type (Homo sapiens) (UniProt Q05655). The assay can be described thus: Inhibition of human PKCd at 500 nM by HotSpot assay relative to control.
Assay [11] has as its target T3, Tyrosine-protein kinase receptor TYRO3 (Homo sapiens) (UniProt Q06418).
T3 sequence (whole entry): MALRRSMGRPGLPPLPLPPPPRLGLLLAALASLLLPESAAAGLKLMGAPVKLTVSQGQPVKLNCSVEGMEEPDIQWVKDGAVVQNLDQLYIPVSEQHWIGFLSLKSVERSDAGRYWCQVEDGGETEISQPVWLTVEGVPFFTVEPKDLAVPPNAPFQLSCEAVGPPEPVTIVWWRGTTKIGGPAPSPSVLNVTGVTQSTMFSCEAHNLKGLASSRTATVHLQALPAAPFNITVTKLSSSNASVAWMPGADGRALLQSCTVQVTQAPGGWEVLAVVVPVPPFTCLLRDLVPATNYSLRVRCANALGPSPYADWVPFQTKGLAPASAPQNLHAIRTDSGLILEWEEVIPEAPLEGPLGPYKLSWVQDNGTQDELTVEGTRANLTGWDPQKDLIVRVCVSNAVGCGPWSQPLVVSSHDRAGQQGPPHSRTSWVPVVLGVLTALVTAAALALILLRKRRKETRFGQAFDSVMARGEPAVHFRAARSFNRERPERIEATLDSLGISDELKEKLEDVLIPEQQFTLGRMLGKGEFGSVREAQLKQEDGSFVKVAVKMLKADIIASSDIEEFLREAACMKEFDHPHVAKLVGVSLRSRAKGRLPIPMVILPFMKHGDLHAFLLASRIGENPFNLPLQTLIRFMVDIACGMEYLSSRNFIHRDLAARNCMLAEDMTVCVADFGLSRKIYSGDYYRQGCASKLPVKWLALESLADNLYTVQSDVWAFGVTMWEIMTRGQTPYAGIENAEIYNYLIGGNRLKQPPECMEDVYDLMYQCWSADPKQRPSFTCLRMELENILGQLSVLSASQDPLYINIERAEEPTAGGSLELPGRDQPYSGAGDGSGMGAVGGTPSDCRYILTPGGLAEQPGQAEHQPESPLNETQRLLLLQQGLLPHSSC
Kind of assay: Inhibition of human SKY at 500 nM by HotSpot assay relative to control.

Sequence of Protein kinase C delta type (Homo sapiens) (Q05655 whole entry, looked up): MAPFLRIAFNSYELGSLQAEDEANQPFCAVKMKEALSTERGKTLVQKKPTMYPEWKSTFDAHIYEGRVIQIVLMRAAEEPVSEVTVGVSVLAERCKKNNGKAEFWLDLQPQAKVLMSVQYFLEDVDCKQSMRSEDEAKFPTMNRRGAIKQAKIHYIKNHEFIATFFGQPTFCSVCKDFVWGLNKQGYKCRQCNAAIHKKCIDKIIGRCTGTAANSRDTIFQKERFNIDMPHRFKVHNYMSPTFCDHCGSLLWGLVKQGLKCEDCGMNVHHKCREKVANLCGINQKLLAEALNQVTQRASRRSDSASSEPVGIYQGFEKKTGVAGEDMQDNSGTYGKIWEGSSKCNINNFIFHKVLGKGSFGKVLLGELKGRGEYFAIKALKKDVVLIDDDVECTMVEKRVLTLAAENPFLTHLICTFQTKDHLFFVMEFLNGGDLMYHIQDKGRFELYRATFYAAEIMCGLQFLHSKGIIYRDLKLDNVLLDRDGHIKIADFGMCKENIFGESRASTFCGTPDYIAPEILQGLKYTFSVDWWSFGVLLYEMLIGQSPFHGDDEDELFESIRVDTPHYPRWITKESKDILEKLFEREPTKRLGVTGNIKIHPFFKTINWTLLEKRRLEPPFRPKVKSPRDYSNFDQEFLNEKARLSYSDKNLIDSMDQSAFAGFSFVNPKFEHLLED
Sequence of Tyrosine-protein kinase receptor UFO (Homo sapiens) (P30530 whole entry): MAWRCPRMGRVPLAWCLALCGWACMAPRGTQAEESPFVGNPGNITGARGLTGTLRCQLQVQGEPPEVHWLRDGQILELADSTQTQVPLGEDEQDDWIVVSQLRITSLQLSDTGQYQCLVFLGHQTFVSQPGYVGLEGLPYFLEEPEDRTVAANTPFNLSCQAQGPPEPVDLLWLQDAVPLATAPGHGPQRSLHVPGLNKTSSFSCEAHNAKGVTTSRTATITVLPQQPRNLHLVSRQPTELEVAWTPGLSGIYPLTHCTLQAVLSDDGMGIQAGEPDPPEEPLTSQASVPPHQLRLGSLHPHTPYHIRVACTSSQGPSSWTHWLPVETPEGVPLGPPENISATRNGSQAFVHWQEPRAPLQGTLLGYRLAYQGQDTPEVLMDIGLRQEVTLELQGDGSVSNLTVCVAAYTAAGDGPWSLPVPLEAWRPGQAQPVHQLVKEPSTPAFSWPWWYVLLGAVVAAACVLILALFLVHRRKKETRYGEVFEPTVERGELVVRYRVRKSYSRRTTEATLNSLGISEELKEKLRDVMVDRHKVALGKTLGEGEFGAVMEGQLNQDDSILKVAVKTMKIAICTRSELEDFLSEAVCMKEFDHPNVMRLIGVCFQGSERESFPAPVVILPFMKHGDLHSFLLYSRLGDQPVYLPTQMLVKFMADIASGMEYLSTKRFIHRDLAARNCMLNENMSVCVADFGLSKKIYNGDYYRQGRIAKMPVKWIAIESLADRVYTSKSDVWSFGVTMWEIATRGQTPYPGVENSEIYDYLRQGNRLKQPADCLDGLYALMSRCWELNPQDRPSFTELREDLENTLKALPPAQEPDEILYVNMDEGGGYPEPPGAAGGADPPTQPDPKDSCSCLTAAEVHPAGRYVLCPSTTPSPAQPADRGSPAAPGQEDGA
Sequence of Serine/threonine-protein kinase PAK 2 (Homo sapiens) (Q13177 whole entry): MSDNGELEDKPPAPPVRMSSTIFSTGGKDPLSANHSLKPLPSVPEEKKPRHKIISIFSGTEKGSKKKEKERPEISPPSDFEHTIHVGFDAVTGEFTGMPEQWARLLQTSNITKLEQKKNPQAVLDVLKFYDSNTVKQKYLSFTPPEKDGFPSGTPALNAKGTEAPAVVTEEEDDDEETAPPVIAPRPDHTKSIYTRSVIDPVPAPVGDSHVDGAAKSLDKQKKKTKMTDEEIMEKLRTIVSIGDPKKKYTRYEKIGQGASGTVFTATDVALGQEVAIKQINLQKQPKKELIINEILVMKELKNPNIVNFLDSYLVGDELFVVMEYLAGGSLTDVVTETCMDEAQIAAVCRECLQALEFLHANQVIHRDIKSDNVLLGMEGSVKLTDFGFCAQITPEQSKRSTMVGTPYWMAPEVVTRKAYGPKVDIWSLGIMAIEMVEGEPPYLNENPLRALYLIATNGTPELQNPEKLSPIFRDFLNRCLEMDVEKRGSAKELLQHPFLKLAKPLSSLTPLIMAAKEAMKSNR
Sequence of Dual specificity protein kinase CLK1 (Homo sapiens) (P49759 whole entry, looked up): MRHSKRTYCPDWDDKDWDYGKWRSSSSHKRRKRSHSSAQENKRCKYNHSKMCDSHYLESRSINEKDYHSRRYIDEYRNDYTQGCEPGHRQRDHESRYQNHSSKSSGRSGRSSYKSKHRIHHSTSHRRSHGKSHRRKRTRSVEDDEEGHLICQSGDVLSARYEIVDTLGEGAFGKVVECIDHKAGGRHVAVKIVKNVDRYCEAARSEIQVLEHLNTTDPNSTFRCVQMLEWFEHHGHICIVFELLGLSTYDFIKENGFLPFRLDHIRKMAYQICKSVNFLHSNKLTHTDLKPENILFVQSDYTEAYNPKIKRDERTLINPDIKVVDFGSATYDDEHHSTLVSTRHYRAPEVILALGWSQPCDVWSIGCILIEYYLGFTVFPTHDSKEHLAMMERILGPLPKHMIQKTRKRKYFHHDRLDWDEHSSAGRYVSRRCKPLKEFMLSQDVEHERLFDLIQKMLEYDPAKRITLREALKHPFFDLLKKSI
Sequence of Serine/threonine-protein kinase pim-1 (Homo sapiens) (P11309 whole entry, looked up): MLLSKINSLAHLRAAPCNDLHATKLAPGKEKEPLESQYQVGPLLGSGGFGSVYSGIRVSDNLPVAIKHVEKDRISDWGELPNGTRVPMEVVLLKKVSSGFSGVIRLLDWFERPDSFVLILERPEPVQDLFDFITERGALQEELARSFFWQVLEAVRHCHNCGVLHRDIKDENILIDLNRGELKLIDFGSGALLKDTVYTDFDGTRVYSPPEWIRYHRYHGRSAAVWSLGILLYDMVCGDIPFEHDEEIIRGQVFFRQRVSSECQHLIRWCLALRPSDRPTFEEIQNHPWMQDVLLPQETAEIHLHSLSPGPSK
Sequence of RAC-beta serine/threonine-protein kinase (Homo sapiens) (P31751 whole entry): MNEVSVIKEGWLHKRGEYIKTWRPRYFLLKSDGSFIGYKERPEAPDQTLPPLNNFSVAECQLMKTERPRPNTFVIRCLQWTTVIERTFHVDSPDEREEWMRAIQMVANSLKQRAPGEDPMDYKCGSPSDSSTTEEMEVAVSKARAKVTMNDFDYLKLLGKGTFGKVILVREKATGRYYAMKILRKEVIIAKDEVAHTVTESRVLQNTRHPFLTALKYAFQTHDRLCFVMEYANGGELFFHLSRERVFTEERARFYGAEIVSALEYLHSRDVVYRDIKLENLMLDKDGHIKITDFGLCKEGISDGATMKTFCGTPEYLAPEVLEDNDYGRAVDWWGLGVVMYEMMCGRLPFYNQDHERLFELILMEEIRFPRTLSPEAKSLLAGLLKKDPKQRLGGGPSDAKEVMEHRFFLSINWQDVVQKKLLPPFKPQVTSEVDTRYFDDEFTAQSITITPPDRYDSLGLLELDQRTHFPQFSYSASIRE
Sequence of RAC-gamma serine/threonine-protein kinase (Homo sapiens) (Q9Y243 whole entry): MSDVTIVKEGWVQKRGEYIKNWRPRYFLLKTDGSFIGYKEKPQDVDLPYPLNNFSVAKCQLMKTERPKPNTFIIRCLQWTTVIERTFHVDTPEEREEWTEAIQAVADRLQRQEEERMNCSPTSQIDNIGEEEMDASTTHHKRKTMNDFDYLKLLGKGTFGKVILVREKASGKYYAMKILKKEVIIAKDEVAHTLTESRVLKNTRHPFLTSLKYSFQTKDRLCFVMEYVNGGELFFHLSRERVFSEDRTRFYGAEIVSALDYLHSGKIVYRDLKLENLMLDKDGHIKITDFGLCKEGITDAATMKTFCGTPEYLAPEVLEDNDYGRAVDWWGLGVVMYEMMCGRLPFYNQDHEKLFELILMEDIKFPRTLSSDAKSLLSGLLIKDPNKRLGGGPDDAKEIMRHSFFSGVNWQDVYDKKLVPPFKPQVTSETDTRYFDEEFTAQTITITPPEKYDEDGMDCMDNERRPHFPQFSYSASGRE
Sequence of Receptor-type tyrosine-protein kinase FLT3 (Homo sapiens) (P36888 whole entry): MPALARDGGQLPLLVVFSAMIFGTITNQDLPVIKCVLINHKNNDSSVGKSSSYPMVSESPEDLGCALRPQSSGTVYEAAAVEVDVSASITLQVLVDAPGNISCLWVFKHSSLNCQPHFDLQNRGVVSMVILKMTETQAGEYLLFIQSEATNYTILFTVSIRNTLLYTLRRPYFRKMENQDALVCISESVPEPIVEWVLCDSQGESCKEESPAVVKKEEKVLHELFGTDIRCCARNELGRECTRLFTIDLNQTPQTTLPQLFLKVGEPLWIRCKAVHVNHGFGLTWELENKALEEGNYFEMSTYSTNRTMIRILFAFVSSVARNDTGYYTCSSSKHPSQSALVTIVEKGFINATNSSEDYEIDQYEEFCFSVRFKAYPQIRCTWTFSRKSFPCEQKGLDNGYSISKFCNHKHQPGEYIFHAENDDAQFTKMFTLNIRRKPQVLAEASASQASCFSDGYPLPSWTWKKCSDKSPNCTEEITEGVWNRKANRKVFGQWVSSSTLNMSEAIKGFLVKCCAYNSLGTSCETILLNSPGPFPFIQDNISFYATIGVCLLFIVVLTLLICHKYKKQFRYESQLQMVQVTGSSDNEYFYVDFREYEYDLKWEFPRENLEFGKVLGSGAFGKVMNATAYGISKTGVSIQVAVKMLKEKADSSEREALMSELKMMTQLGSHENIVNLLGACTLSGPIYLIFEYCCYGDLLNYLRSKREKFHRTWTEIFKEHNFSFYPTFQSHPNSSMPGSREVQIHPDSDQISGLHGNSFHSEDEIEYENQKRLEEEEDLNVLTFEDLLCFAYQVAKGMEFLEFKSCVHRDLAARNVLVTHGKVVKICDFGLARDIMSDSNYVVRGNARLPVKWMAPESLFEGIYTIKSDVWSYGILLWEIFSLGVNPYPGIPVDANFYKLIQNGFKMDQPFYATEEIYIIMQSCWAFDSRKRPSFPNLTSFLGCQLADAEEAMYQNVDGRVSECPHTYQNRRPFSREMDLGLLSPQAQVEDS

Regarding `Oc1n[nH]c2nnc(-c3c(-c4ccccc4)nn4ccccc34)cc12`, the inhibition in assay [1] was -5.44%; in assay [2] it was 2.1%; in [3], -1.44%; in [4], -5.95%; in assay [5], -2.05%; in [6], 4.49%. In addition, the inhibition in assay [7] was 0.75%; in assay [8], -1.47%; in assay [9] it was 0.66%; in assay [10], 2.29%; in assay [11], 10.1%.
For the compound `Nc1n[nH]c2nnc(-c3c(-c4ccccc4)nn4ccccc34)cc12`, the inhibition in assay [1] was 2.47%; in [2], 2.52%; in assay [3], 0.88%; in assay [4], -8.27%; in assay [5], -0.31%; in [6], 36.5%. In addition, the inhibition in assay [7] is -2.01%; in assay [8] it was -0.21%; in assay [9] it was -0.39%; in assay [10], 68.8%; in assay [11], 2.41%.

The record behind these values is ChEMBL document CHEMBL5653615 (J Biol Chem, 2013).
